Measured values as given in patent publication US12174189B2, “Diagnostic, prognostic, and monitoring methods for chronic lymphocytic leukemia” (INSTITUTE FOR MYELOMA & BONE CANCER RESEARCH, priority 2013, dated 2024).
“Also recorded” adds a separate entry of the source.

System: LAGλ-1 tumor
Assay: LAGλ-1 human MM xenograft in SCID mice
Format: in vivo, CB17 SCID mice
Settings: melphalan 3 mg/kg twice weekly i.p., vs untreated mice
Excerpt: Serum human BCMA levels also correlated with tumor growth, IgG levels and response to treatment in mice bearing another human MM xenograft, LAGλ-1. Untreated mice (n=4) had large tumor volumes and high serum IgG and BCMA levels. […] Human BCMA was not detected in the serum of non-tumor bearing SCID mice (data not shown).

## N[C@@H](Cc1ccc(N(CCCl)CCCl)cc1)C(=O)O [melphalan, Melphalan]
P<0.0001
  tumor volumes: smaller; also recorded: small tumor volumes
P=0.0033
  serum IgG levels: smaller; also recorded: significantly reduced
P=0.0055
  serum human BCMA levels: smaller; also recorded: significantly reduced
